From US5686458A, “Quinazoline deriviates for treating peptic ulcer” (Yuhan Corporation, priority 1992, dated 1997)

Columns and labels:
[1] = biological target: T1, Proton Pump (H^+ /K^+ ATPase) (Oryctolagus cuniculus, UniProt P27112); assay: Inhibition of Proton Pump (H+/K+ ATPase) Activity, in vitro enzyme reaction (Experiment 1); format: biochemical, New Zealand white rabbit; details: for Effect ratio: IC50 of Omeprazole / IC50 of test compound; for IC50: K+-stimulated H+/K+ ATPase activity, rabbit gastric microsomes, pH 7.2, 37° C., 15 min prereaction, 30 min reaction, read-out: IC50 of test compound, inhibition (50%) of the proton pump activity
T1 construct: The microsomes thus obtained were used as an enzyme source of the in vitro enzyme reaction study of proton pump; from tissue; host or cells: rabbit stomach, mucosal scrapings, microsomes (180,000 g pellet)
T1 sequence (P27112 whole entry): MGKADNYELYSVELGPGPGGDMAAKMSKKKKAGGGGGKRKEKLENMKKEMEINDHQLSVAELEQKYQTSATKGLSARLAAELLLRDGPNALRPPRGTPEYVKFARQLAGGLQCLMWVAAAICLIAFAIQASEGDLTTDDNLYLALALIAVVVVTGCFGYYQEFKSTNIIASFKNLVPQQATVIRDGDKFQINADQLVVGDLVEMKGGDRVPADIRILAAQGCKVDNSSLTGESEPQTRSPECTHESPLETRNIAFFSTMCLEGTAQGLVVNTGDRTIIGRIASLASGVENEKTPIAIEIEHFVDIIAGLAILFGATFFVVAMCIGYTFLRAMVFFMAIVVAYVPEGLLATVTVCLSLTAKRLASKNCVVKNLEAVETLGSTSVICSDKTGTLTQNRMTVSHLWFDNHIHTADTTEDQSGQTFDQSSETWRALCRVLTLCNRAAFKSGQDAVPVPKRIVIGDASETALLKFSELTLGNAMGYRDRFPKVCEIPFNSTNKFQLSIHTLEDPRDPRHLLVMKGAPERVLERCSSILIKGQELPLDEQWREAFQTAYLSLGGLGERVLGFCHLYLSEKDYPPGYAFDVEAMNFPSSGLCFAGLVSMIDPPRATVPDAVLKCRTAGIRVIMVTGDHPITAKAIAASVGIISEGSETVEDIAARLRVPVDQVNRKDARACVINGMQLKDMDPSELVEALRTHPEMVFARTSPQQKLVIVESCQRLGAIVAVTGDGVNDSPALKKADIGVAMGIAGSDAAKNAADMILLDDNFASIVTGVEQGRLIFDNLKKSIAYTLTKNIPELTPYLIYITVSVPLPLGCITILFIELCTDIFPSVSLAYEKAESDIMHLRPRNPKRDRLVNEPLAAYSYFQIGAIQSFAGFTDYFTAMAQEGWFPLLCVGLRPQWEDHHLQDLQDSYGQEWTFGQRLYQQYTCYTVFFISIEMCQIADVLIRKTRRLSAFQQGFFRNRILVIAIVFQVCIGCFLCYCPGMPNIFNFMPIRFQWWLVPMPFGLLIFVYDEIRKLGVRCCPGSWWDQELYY
T1 sequence (P18597 whole entry partner): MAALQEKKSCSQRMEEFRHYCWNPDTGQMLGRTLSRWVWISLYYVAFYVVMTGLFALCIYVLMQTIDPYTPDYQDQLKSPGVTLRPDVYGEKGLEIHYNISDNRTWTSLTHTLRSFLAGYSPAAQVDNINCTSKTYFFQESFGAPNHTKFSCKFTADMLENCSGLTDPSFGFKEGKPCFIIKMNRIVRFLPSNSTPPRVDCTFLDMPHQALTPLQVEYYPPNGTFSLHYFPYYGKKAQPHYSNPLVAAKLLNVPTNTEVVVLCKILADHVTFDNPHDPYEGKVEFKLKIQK
Experimental: A New Zealand white rabbit was killed by blowing its head and the stomach was taken out. The contents of the stomach were removed and the stomach walls were washed with was saline. The inner wall of the stomach was scratched out with a slide glass and the cells thus obtained were homogenized in 0.25M sucrose buffer by means of a Teflon-glass homogenizer. The homogenous solution was centrifuged at 10,000 g for 10 minutes and the supernatant was further centrifuged at 20,000 g for 20 minutes. The supernatant thus obtained was centrifuged at an ultra-high speed of 180,000 g for 1 hour. The pellets precipitated were collected by discarding the supernatant and suspended in 50 mM Tris-HCl buffer having pH 7.2. The suspension was dialyzed twice with the same buffer(of 1,000 times volume) for 3 hours and stored into liquid nitrogen.
The above centrifugation and dialysis were carried out at 4° C. The microsomes thus obtained were used as an enzyme source of the in vitro enzyme reaction study of proton pump.
The inhibitory effects of proton pump activity by the compounds of the present invention were measured by the in vitro enzyme reaction study. The proton pump activity stimulated by Mg^++ was used as a negative comparative group, and the activity stimulated by Mg^++ and K^+ was used as a positive comparative group. The comparative compound was omeprazole.
Test tubes were divided into 4 groups: Group 1 as negative comparative group(n=3), Group 2 as positive comparative group(n=3), Group 3(n=5) to be administered with the compound of the present invention and Group 4(n=5) to be administered with the comparative compound. The inhibitory effects of proton pump activity of Groups 3 and 4 were measured by employing the compound prepared in Example 34 and omeprazole, respectively, each of which was dissolved in dimethylsulfoxide at 5 different concentrations.
To each of Groups 1, 2, 3 and 4, were added 0.1 ml of magnesium chloride(40 mM) dissolved in 50 mM Tris-HCl buffer (pH 7.2) and […] of the enzyme source prepared in Experiment 1-1. Then, 0.1 ml of potassium chloride(500 mM) and 0.1 ml of ammonium chloride(100 mM) dissolved in 50 mM Tris-HCl buffer(pH 7.2) were added to all groups except for Group 1.
0.1 ml of dimethylsulfoxide was added to each of Groups 1 and 2; and to Group 3 was added 0.01 ml of the solution in which the compound prepared in Example 34 was dissolved in dimethylsulfoxide at 5 different concentrations. To Group 4, 0.01 ml of the solution prepared by dissolving omprazole in dimethylsulfoxide at 5 different concentrations(37.6, 21.4, 12.2, 7.0 and 4.0 μM) was added. 50 mM Tris-HCl buffer was added thereto so as to make the total volume 0.4 ml.
Thereafter, the test tubes of each Group were placed at 37° C. for 15 minutes for the prereaction. 0.1 ml of ATP solution(33.3 mM), which was prepared by adding Tris-ATP 50 mM to Tris-HCl buffer having pH 7.2, was added until the reaction volume became 0.5 ml. The final concentrations of MgCl2, KCl, NH4 Cl, ATP, enzyme and Tris-HCl were 8 mM, 100 mM, 20 mM, 6.7 mM, 100μg/ml and 50 mM, respectively. After the reaction was carried out at 37° C. for 30 minutes, 25% cold trichloroacetic acid was added to terminate the enzyme reaction. The released inorganic phosphate was measured by an automatic analyzer(SBA 300, Gilford).
The difference between Group 1 and Group 2 represents the proton pump activity activated by K^+ only. The inhibition percentages of Groups 3 and 4 were calculated from Litchfield-wilcoxon equation[see J. Pharmacol. Exptl. Ther. 96, 99(1949)]. The concentrations of the test compounds which inhibit 50% of the proton pump activity are represented as IC50 in Table 1.

gastric secretion = assay: Inhibition of Gastric Secretion, pylorus-ligated rats (Experiment 2); format: in vivo, Sprague-Dawley rats; details: relative to omeprazole (equation III), 20 mg/kg intraduodenally, pylorus-ligated rats, 5 hours
Experimental: In accordance with the method disclosed in Shay, H., et al., Gastroenterology 5, 43-61(1945), Experiment 2 was carried out.
Sprague-Dawley rats having a body weight of 170±10 g were divided into 3 groups(n=5) and deprived of food for 24 hours before the experiment with free access to water. Under ether anesthesia, the abdomen was incised, and the pylorus was ligated. As a comparative group, Group 1 was administered intraduodenally in a volume of 0.5 ml/200 g of 30% aqueous polyethylene glycol 400 solution. Groups 2 and 3 were administered intraduodenally with the compound of Example 34 and omeprazole, respectively, each of which was suspended in 30% aqueous polyethylene glycol 400 solution at a concentration of 20 mg/kg. After closing the abdominal cavity, the rats were placed for 5 hours and then killed by cervical dislocation. The stomach was extracted to obtain gastric juice.
The gastric juice was centrifuged at 1,000 g to remove precipitates. The amount and acidity of the gastric juice were measured. Relative volumes, relative acid concentrations and relative acid outputs of the test compounds were calculated from equations(I), (II) and (III) and the results are shown in Table 2.
(I) = the average amount of gastric juice of Group 1 - the
average amount of gastric juice of Group 2)/(the average
amount of gastric juice of Group 1 - the average amount
of gastric juice of Group 3)
Relative acid concentration
(II) = (the average acidity of Group 1 - the average
acidity of Group 2)/(the average acidity of Group 1 - the average
(III) = (the total amount of acid output of Group 1 - the
total amount of acid output of Group 2)/(the total amount of acid
output of Group 1 - the total amount of acid output of Group

Structure (SMILES): COc1cccc2c(N3CCc4cc(C)ccc4C3C)nc(Nc3ccc(F)cc3)nc12.Cl (stereo not drawn) [Example 54, 2-(4-Fluorophenylamino)-8-Methoxy-4-(1,6-Dimethyl-1,2,3,4-Tetrahydroisoquinoline-2-Yl)Quinazoline Hydrochloride]
- Effect ratio [1]: ~ 0.64
- IC50 [1]: ~12.5 µM
- Relative Acid Output (gastric secretion): 0.82

Structure (SMILES): COc1cccc2c(N3CCc4cc(C)ccc4C3C)nc(Nc3ccc(F)cc3C)nc12.Cl (stereo not drawn) [Example 55, 2-(4-Fluoro-2-Methylphenyl-Amino)-8-Methoxy-4-(1,6-Dimethyl-1,2,3,4-Tetrahydroisoquinoline-2-Yl)Quinazoline Hydrochloride]
- Effect ratio [1]: ~ 0.80
- IC50 [1]: ~10 µM
- Relative Acid Output (gastric secretion): 0.50

Structure (SMILES): COc1cccc2c(N3CC(C)c4ccccc4C3C)nc(Nc3ccc(F)cc3)nc12.Cl (stereo not drawn) [Example 56, 2-(4-Fluorophenylamino)-8-Methoxy-4-(1,4-Dimethyl-1,2,3,4-Tetrahydroisoquinoline-2-Yl)Quinazoline Hydrochloride]
- Effect ratio [1]: < 0.60
- IC50 [1]: > 12.5 µM
- Relative Acid Output (gastric secretion): 0.85

Structure (SMILES): COc1cccc2c(N3CC(C)c4ccccc4C3C)nc(Nc3ccc(F)cc3C)nc12.Cl (stereo not drawn) [Example 57, 2-(4-fluoro-2-Methylphenyl-Amino)-8-Methoxy-4-(1,4-Dimethyl-1,2,3,4-Tetrahydroisoquinoline-2-Yl) Quinazoline Hydrochloride]
- Effect ratio [1]: 1.04
- IC50 [1]: 7.18 µM
- Relative Acid Output (gastric secretion): 0.67

Structure (SMILES): COc1cccc2c(N3CCc4cccc5c4C3CC5)nc(Nc3ccc(F)cc3)nc12.Cl (stereo not drawn) [Example 58, 8-Methoxy-2-(4-Fluorophenyl-Amino)-4-(1,8-Ethano-1,2,3,4-Tetrahydroisoquinoline-2-Yl)Quinazoline Hydrochloride]
- Effect ratio [1]: 0.65
- IC50 [1]: 13.6 µM
- Relative Acid Output (gastric secretion): 0.94

Structure (SMILES): COc1cccc2c(N3CCc4cccc5c4C3CC5)nc(Nc3ccc(F)cc3C)nc12.Cl (stereo not drawn) [Example 59, 8-Methoxy-2-(4-Fluoro-2-Methyl-Phenylamino)-4-(1,8-Ethano-1,2,3,4-Tetrahydroisoquinoline-2-Yl)Quinazoline Hydrochloride]
- Effect ratio [1]: 1.77
- IC50 [1]: 4.8 µM
- Relative Acid Output (gastric secretion): 0.83

Structure (SMILES): COc1cccc2c(N3CCc4ccccc4C3C)nc(Nc3ccc(F)cc3C)nc12.CS(=O)(=O)O (stereo not drawn) [Example 60, 2-(4-Fluoro-2-MethylPhenyl-Amino)-8-Methoxy-4-(1-Methyl-1,2,3,4-Tetrahydroisoquinoline-2-Yl)Quinazoline Methanesulfonate]
- Effect ratio [1]: 5.20
- IC50 [1]: 1.8 µM
- Relative Acid Output (gastric secretion): 0.84

Structure (SMILES): COc1cccc2c(N3CCc4ccccc4C3C)nc(Nc3ccc(F)cc3C)nc12.O=C(O)CC(O)C(=O)O (stereo not drawn) [Example 61, 2-(4-Fluoro-2-Methylphenyl-Amino)-8-Methoxy-4-(1-Methyl-1,2,3,4-Tetrahydroisoquinoline-2-Yl)Quinazoline Malate]
- Effect ratio [1]: 4.42
- IC50 [1]: 2.1 µM
- Relative Acid Output (gastric secretion): 0.76
